Data: the supplement of paper PMC11451515

Assays:
Conditions in all cases: 48 h
P12-Ichikawa [1] = assay: cell viability relative to DMSO control; higher = less cytotoxic
Summary of the method: (§1)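 NOMO1, SEM and P12-Ichikawa leukemia cells spent at least four passages adapting to each medium before use. They were seeded at 500 cells/well (NOMO1, SEM) or 1000 cells/well (P12-Ichikawa) in 5 μl in 1536-well plates and pin-dosed with library compounds in DMSO at 11 threefold steps from 47 μM down to 0.79 nM. After 48 h at 37°C, CellTiter-Glo One luminescence was read. Viability is reported as a percentage of the DMSO wells on each plate, with cell-free wells as background.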

SEM cells [2] = assay: as above
Summary of the method: as §1

NOMO1 [3] = assay: as above
Summary of the method: as §1

P12-Ichikawa [4] = assay: AUC of viability dose-response curve (% viability x log10 dose units); higher = less sensitive
Summary of the method: (§2)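 Viability of medium-adapted leukemia cells was measured by CellTiter-Glo One luminescence after 48 h at 37°C with library compounds in DMSO. Doses were 11 threefold steps from 47 μM to 0.79 nM, in 1536-well plates at 500 or 1000 cells/well. Signals were normalised per plate to DMSO and cell-free wells and fitted with a four-parameter log-logistic model on log10 dose. Area under the curve was integrated by trapezoidal rule, with curves exceeding full viability scaled and failed quality-control curves removed.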

SEM cells [5] = assay: as above
Summary of the method: as §2

NOMO1 [6] = assay: as above
Summary of the method: as §2

C[N+](C)(C)CC(=O)O.[Cl-]
cell viability [%]
Conditions | NOMO1 [3] | P12-Ichikawa [1] | SEM cells [2]
HPLM + 10% dialyzed FBS, 0.000781 µM | 63.1 | 86.5 | 56.8
HPLM + 10% dialyzed FBS, 0.00234 µM | 90.5 | 92 | 83.2
HPLM + 10% dialyzed FBS, 0.00702 µM | 85 | 93 | 80.5
HPLM + 10% dialyzed FBS, 0.0211 µM | 94.9 | 92.6 | 73.7
HPLM + 10% dialyzed FBS, 0.0632 µM | 94.4 | 93.7 | 79.7
HPLM + 10% dialyzed FBS, 0.19 µM | 86.3 | 87 | 85.5
HPLM + 10% dialyzed FBS, 0.569 µM | 95.6 | 98.2 | 88.3
HPLM + 10% dialyzed FBS, 1.71 µM | 89.5 | 89.8 | 26.3
HPLM + 10% dialyzed FBS, 5.12 µM | 104 | 99.3 | 93.1
HPLM + 10% dialyzed FBS, 15.4 µM | 86.5 | 88.2 | 93.4
HPLM + 10% dialyzed FBS, 46.1 µM | 93.9 | 99.1 | 89.1
RPMI 5 mM glucose + 10% FBS, 0.000781 µM | 77.1 | 86.4 | 76.8
RPMI 5 mM glucose + 10% FBS, 0.00234 µM | 86 | 94.4 | 80.8
RPMI 5 mM glucose + 10% FBS, 0.00702 µM | 80.4 | 90.9 | 73
RPMI 5 mM glucose + 10% FBS, 0.0211 µM | 81.6 | 94.7 | 77.4
RPMI 5 mM glucose + 10% FBS, 0.0632 µM | 85.5 | 91.8 | 81.8
RPMI 5 mM glucose + 10% FBS, 0.19 µM | 87.6 | 91.5 | 89.2
RPMI 5 mM glucose + 10% FBS, 0.569 µM | 87.8 | 98 | 96
RPMI 5 mM glucose + 10% FBS, 1.71 µM | 80.3 | 91.5 | 16.6
RPMI 5 mM glucose + 10% FBS, 5.12 µM | 83.2 | 94.1 | 86.8
RPMI 5 mM glucose + 10% FBS, 15.4 µM | 84.2 | 98 | 90.2
RPMI 5 mM glucose + 10% FBS, 46.1 µM | 81.1 | 93.7 | 93.4
RPMI 5 mM glucose + 10% dialyzed FBS, 0.000781 µM | 68.8 | 81.8 | 81.5
RPMI 5 mM glucose + 10% dialyzed FBS, 0.00234 µM | 88.1 | 87.4 | 95
RPMI 5 mM glucose + 10% dialyzed FBS, 0.00702 µM | 79.7 | 85.4 | 90.9
RPMI 5 mM glucose + 10% dialyzed FBS, 0.0211 µM | 89.3 | 86 | 87.8
RPMI 5 mM glucose + 10% dialyzed FBS, 0.0632 µM | 90.8 | 91.1 | 81.7
RPMI 5 mM glucose + 10% dialyzed FBS, 0.19 µM | 89.1 | 82.4 | 89
RPMI 5 mM glucose + 10% dialyzed FBS, 0.569 µM | 92.3 | 90.7 | 100
RPMI 5 mM glucose + 10% dialyzed FBS, 1.71 µM | 91.5 | 88.1 | 21
RPMI 5 mM glucose + 10% dialyzed FBS, 5.12 µM | 83.8 | 82.9 | 91.8
RPMI 5 mM glucose + 10% dialyzed FBS, 15.4 µM | 92 | 90.4 | 88.8
RPMI 5 mM glucose + 10% dialyzed FBS, 46.1 µM | 84.7 | 81.7 | 74.2

AUC of viability dose-response curve
Conditions | NOMO1 [6] | P12-Ichikawa [4] | SEM cells [5]
HPLM + 10% dialyzed FBS | 432 | 442 | 373
RPMI 5 mM glucose + 10% FBS | 398 | 446 | 374
RPMI 5 mM glucose + 10% dialyzed FBS | 416 | 411 | 391

CCCOc1ccc2[nH]c(NC(=O)OC)nc2c1
cell viability [%]
Conditions | NOMO1 [3] | P12-Ichikawa [1] | SEM cells [2]
HPLM + 10% dialyzed FBS, 0.000781 µM | 116 | 125 | 106
HPLM + 10% dialyzed FBS, 0.00234 µM | 116 | 122 | 99.4
HPLM + 10% dialyzed FBS, 0.00702 µM | 104 | 107 | 97.6
HPLM + 10% dialyzed FBS, 0.0211 µM | 102 | 99.4 | 82.9
HPLM + 10% dialyzed FBS, 0.0632 µM | 76.5 | 54.5 | 42.1
HPLM + 10% dialyzed FBS, 0.19 µM | 36.9 | 35.3 | 25.4
HPLM + 10% dialyzed FBS, 0.569 µM | 31.7 | 17.2 | 23
HPLM + 10% dialyzed FBS, 1.71 µM | 32 | 21.8 | 25.8
HPLM + 10% dialyzed FBS, 5.12 µM | 50.3 | 25.3 | 25.7
HPLM + 10% dialyzed FBS, 15.4 µM | 36.6 | 18.8 | 24.6
HPLM + 10% dialyzed FBS, 46.1 µM | 36.6 | 23.2 | 23
RPMI 5 mM glucose + 10% FBS, 0.000781 µM | 122 | – | 95.3
RPMI 5 mM glucose + 10% FBS, 0.00234 µM | 116 | – | 78.3
RPMI 5 mM glucose + 10% FBS, 0.00702 µM | 120 | – | 70
RPMI 5 mM glucose + 10% FBS, 0.0211 µM | 121 | – | 60
RPMI 5 mM glucose + 10% FBS, 0.0632 µM | 98.3 | – | 23.6
RPMI 5 mM glucose + 10% FBS, 0.19 µM | 28.6 | – | 14.1
RPMI 5 mM glucose + 10% FBS, 0.569 µM | 21.1 | – | 13.2
RPMI 5 mM glucose + 10% FBS, 1.71 µM | 19.4 | – | 9.52
RPMI 5 mM glucose + 10% FBS, 5.12 µM | 26.7 | – | 11.6
RPMI 5 mM glucose + 10% FBS, 15.4 µM | 22.6 | – | 12.1
RPMI 5 mM glucose + 10% FBS, 46.1 µM | 25.2 | – | 15.1
RPMI 5 mM glucose + 10% dialyzed FBS, 0.000781 µM | – | – | 120
RPMI 5 mM glucose + 10% dialyzed FBS, 0.00234 µM | – | – | 123
RPMI 5 mM glucose + 10% dialyzed FBS, 0.00702 µM | – | – | 94.4
RPMI 5 mM glucose + 10% dialyzed FBS, 0.0211 µM | – | – | 80.2
RPMI 5 mM glucose + 10% dialyzed FBS, 0.0632 µM | – | – | 45.2
RPMI 5 mM glucose + 10% dialyzed FBS, 0.19 µM | – | – | 20.1
RPMI 5 mM glucose + 10% dialyzed FBS, 0.569 µM | – | – | 22.5
RPMI 5 mM glucose + 10% dialyzed FBS, 1.71 µM | – | – | 15.3
RPMI 5 mM glucose + 10% dialyzed FBS, 5.12 µM | – | – | 17.5
RPMI 5 mM glucose + 10% dialyzed FBS, 15.4 µM | – | – | 20.8
RPMI 5 mM glucose + 10% dialyzed FBS, 46.1 µM | – | – | 18.7

AUC of viability dose-response curve
Conditions | NOMO1 [6] | P12-Ichikawa [4] | SEM cells [5]
HPLM + 10% dialyzed FBS | 286 | 226 | 240
RPMI 5 mM glucose + 10% FBS | 259 | 217 | 169
RPMI 5 mM glucose + 10% dialyzed FBS | 273 | 257 | 199

CCc1c(O)cc(O)c(C(=O)c2ccc(OCCN3CCOCC3)c(OC)c2)c1CC(=O)N(CCOC)CCOC
cell viability [%]
Conditions | NOMO1 [3] | P12-Ichikawa [1] | SEM cells [2]
HPLM + 10% dialyzed FBS, 0.000781 µM | 102 | 102 | 115
HPLM + 10% dialyzed FBS, 0.00234 µM | 106 | 105 | 124
HPLM + 10% dialyzed FBS, 0.00702 µM | 117 | 118 | 118
HPLM + 10% dialyzed FBS, 0.0211 µM | 127 | 112 | 120
HPLM + 10% dialyzed FBS, 0.0632 µM | 127 | 112 | 116
HPLM + 10% dialyzed FBS, 0.19 µM | 119 | 105 | 116
HPLM + 10% dialyzed FBS, 0.569 µM | 114 | 104 | 111
HPLM + 10% dialyzed FBS, 1.71 µM | 80.7 | 87.6 | 103
HPLM + 10% dialyzed FBS, 5.12 µM | 21.2 | 59.9 | 47.3
HPLM + 10% dialyzed FBS, 15.4 µM | 13.7 | 41.1 | 25.5
HPLM + 10% dialyzed FBS, 46.1 µM | 11.6 | 40.9 | 17
RPMI 5 mM glucose + 10% FBS, 0.000781 µM | 101 | 100 | 122
RPMI 5 mM glucose + 10% FBS, 0.00234 µM | 101 | 101 | 116
RPMI 5 mM glucose + 10% FBS, 0.00702 µM | 113 | 113 | 153
RPMI 5 mM glucose + 10% FBS, 0.0211 µM | 106 | 105 | 121
RPMI 5 mM glucose + 10% FBS, 0.0632 µM | 118 | 108 | 143
RPMI 5 mM glucose + 10% FBS, 0.19 µM | 124 | 103 | 117
RPMI 5 mM glucose + 10% FBS, 0.569 µM | 109 | 93.5 | 81.9
RPMI 5 mM glucose + 10% FBS, 1.71 µM | 93.4 | 78 | 91.3
RPMI 5 mM glucose + 10% FBS, 5.12 µM | 21.6 | 41.1 | 40.8
RPMI 5 mM glucose + 10% FBS, 15.4 µM | 12.3 | 32.7 | 20.8
RPMI 5 mM glucose + 10% FBS, 46.1 µM | 11.3 | 35.4 | 19
RPMI 5 mM glucose + 10% dialyzed FBS, 0.000781 µM | 115 | 106 | 115
RPMI 5 mM glucose + 10% dialyzed FBS, 0.00234 µM | 114 | 102 | 103
RPMI 5 mM glucose + 10% dialyzed FBS, 0.00702 µM | 114 | 105 | 111
RPMI 5 mM glucose + 10% dialyzed FBS, 0.0211 µM | 108 | 110 | 106
RPMI 5 mM glucose + 10% dialyzed FBS, 0.0632 µM | 114 | 110 | 108
RPMI 5 mM glucose + 10% dialyzed FBS, 0.19 µM | 106 | 104 | 105
RPMI 5 mM glucose + 10% dialyzed FBS, 0.569 µM | 102 | 85 | 86.5
RPMI 5 mM glucose + 10% dialyzed FBS, 1.71 µM | 98.8 | 84.5 | 68.1
RPMI 5 mM glucose + 10% dialyzed FBS, 5.12 µM | 28.2 | 42.6 | 32.9
RPMI 5 mM glucose + 10% dialyzed FBS, 15.4 µM | 16.4 | 32 | 24.1
RPMI 5 mM glucose + 10% dialyzed FBS, 46.1 µM | 14.1 | 35 | 15

AUC of viability dose-response curve
Conditions | NOMO1 [6] | P12-Ichikawa [4] | SEM cells [5]
HPLM + 10% dialyzed FBS | 359 | 399 | 383
RPMI 5 mM glucose + 10% FBS | 367 | 384 | 347
RPMI 5 mM glucose + 10% dialyzed FBS | 375 | 383 | 355
